We go through one compound from patent US20180228799A1, “Treatment for Neurological and Mental Disorders” (PSYCHOGENICS, INC., priority 2008, published 2018).

This test has as its system rats. As to the kind of experiment: Radial arm maze, scopolamine-induced working memory deficit. To be noted: scopolamine 0.5 mg/kg IP, FIG. 2. The class given is in vivo. As for the experimental part: Several mazes, such as the radial arm maze (RAM) have been adapted to assess working memory in rodents. The RAM consists of eight long runways radiating out in a circle from a central compartment. In the RAM rats learn to retrieve food rewards from all or a sub-set of the arms. Working memory is assessed by measuring entries into previously baited arms within a given trial. […] Hippocampal lesions produce deficits both in adults and in the neonatal hippocampal lesion model of schizophrenia.
For training, food deprived rats were placed in an enclosed cylinder in the center of the maze for 20 s, prior to being allowed to explore the maze by removing the cylinder. Each radial arm is baited with a food reward. Animals were given a maximum of 5 minutes to retrieve all food rewards. This training continued once daily for three weeks until animals met the performance criteria for successful acquisition of the task.
Four parameters were recorded to assess the performance of the rat: (1) the number of errors, which is defined as entering an arm that had already been entered, (2) the number of consecutive entries into un-visited arms before the first error occurred (entries to repeat), (3) latency to complete the task, and (4) the total number of arm entries before all food in the eight arms is collected or the maximum session duration is reached. […]

As for `CN1[C@@H]2C[C@@H](OC(=O)[C@H](CO)c3ccccc3)C[C@H]1[C@@H]1O[C@@H]12` [scopolamine, reference compound], the “Entries to repeat in the radial arm maze compared to baseline” value is “decreased entries to repeat”.
